Source: patent US12291513B2, “Pyridinium derivatives made by hydrothermal synthesis for use as anolytes in electrochemical cells” (Wisconsin Alumni Research Foundation, priority 2021, dated 2025)

Columns and labels:
[1] = Cyclic voltammetry (formal potentials, Randles-Sevcik diffusion coefficients); assay type: physicochemical
Protocol: CV and EIS experiments were ran using a PalmSens4 potentiostat with the PSTrace software. Electrochemical experiments were performed in 1.0 M NaCl supporting electrolyte using 15 mM of active material at room temperature (18° C.). Formal potentials for the redox couples were estimated by taking the average potential between the cathodic and anodic peak. Diffusional behavior was investigated by varying the scan rate between 10-100 mV·s^−1 for the first electron reduction and 50-200 mV·s^−1 for the second electron reduction, and the diffusion constants of the reduced and oxidized states (D^R and D^O) were determined via the Randles-Sevcik equation assuming ideal reversible behavior (FIG. 12D). Potentiostatic EIS measurements were used for determination of a combined diffusional constant of the reduced and oxidized states (D^EIS) and of the standard electron kinetic rate constant (k^o). These EIS measurements were performed at the formal reduction potential (held for 30 seconds before measurement) in which the concentration of the two redox states at the electrode surface were assumed to be the same and equal to half of the initially prepared redox species concentration.
A glassy carbon working electrode (CH Instruments, 0.0707 cm^2), a saturated calomel reference electrode (SCE, CH Instruments, +0.241 V vs. SHE), and a platinum wire counter electrode were used for both CV and EIS measurements. The working electrode was polished with 1 μm, 0.3 μm, and 0.05 μm alumina slurry successively. All electrodes were rinsed with deionized water in between measurements.
CVs were taken at various scan rates in order to determine the diffusion coefficients via the Randles-Sevcik relation (Eqn. 1) where ip is the peak current in Amps, n is number of electrons transferred, F is Faraday's constant, A is electrode surface area in cm^2, C is the redox species concentration in mole·cm^−3, R is the ideal gas constant, T is temperature, D is the diffusion coefficient, and v is scan rate in V/s. The anodic peak current […] determines the diffusion coefficient of the reduced state (D^R) while the cathodic peak current (ip,a) determines the diffusion coefficient of the oxidized state (D^O). ip=0.4463n^3/2·F^3/2·A·C·R^−1/2·T^−1/2·D^1/2·v^1/2 Eqn. 1

[2] = Symmetric, volumetrically-unbalanced flow cell cycling; details: sixteen days (150 cycles) continuous charge-discharge, N2 glovebox, first redox process
Protocol: The RFB measurements were carried out in a custom-made zero-gap device previously reported by Li et al. (Li, W. et al., Chem 2018, 4 (11), 2644-2657; and Li, W. et al., Adv. Energy Mater. 2019, 9 (31), 1900918.) Both symmetric flow cell and RFB full cell measurements were conducted using a Bio-Logic SP-200 potentiostat at room temperature (˜20° C.). In symmetric cells, 0.1 M of active species in 1 M NaCl (pre-charged to 50% SOC of the first electron reduction using FcNCl as the counter cathode in bulk electrolysis) was utilized on both sides with the capacity limiting side (CLS) consisting of 5 mL of solution and the non-capacity limiting side (NCLS) consisting of 10 mL of solution separated by a Selemion AMV anion-exchange membrane (Asahi Glass Co.). The neat Dex-Vi full RFB cell cycling was performed using the product from the Dex-Vi synthesis directly without any purification. The neat product was diluted to roughly 0.1 M to pair with a 0.2 M BTMAP-Fc counter catholyte in excess capacity separated by an AMV membrane. Both the anolyte and catholyte were 5 mL in total volume with 0.5 M NaCl supporting electrolyte. […]

[3] = Full RFB cell cycling, anolyte-limiting, BTMAP-Fc catholyte; details: for capacity decay in RFB cycling: anolyte-limiting
Protocol: The RFB measurements were carried out in a custom-made zero-gap device previously reported by Li et al. (Li, W. et al., Chem 2018, 4 (11), 2644-2657; and Li, W. et al., Adv. Energy Mater. 2019, 9 (31), 1900918.) Both symmetric flow cell and RFB full cell measurements were conducted using a Bio-Logic SP-200 potentiostat at room temperature (˜20° C.). In symmetric cells, 0.1 M of active species in 1 M NaCl (pre-charged to 50% SOC of the first electron reduction using FcNCl as the counter cathode in bulk electrolysis) was utilized on both sides with the capacity limiting side (CLS) consisting of 5 mL of solution and the non-capacity limiting side (NCLS) consisting of 10 mL of solution separated by a Selemion AMV anion-exchange membrane (Asahi Glass Co.). The neat Dex-Vi full RFB cell cycling was performed using the product from the Dex-Vi synthesis directly without any purification. The neat product was diluted to roughly 0.1 M to pair with a 0.2 M BTMAP-Fc counter catholyte in excess capacity separated by an AMV membrane. Both the anolyte and catholyte were 5 mL in total volume with 0.5 M NaCl supporting electrolyte. The first electron high concentration Dex-Vi RFB full cell cycling was performed using 5 mL of 1.5 M Dex-Vi as the anolyte and 10 mL 0.75 M BTMAP-Fc as the catholyte, both of which were prepared in pure water without any supporting salt, with a DSV anion-exchange membrane. The second-electron high concentration full cell cycling was performed using 5 mL of 1.5 M Dex-Vi in water as the anolyte, 20 mL of 0.75 M BTMAP-Fc in water as the catholyte, and a DSV anion-exchange membrane. Rate performance was investigated using 0.1 M Dex-Vi anolyte and 0.2 M BTMAP-Fc catholyte both in 1 M NaCl with DSV anion-exchange membrane.
Graphite plates (⅛-inch thickness, MWI Inc.) with a 20×20×1.2 mm pocket were used as current collectors for RFB devices. 4 cm^2 graphite felt electrodes (GFD 3 EA, […]®) were pre-treated at 400° C. in air for 6 hr before being used on both sides of the cell. 25×25 mm Selemion AMV or DSV was presoaked in 1.0 M NaCl for more than 24 hr before it was used as an anion-exchange membrane. The cell was assembled with four pieces of die cut PTFE sheets (0.04-inch thickness) as gaskets and tightened with eight #10-24 bolts. The electrolytes were pumped through the flow channels by a peristaltic pump (Cole-Parmer Masterflex L/S) via PharMed BPT tubing. The electrolyte flow rate was controlled at 20 mL·min^−1 for all RFB measurements. 10 mL custom made glass vials with two 4 mm OD electrolyte inlet/out arms were used as electrolyte reservoirs. […]

C[N+](C)(C)CC(O)C[n+]1ccc(-c2cc[n+](CC(O)C[N+](C)(C)C)cc2)cc1 (stereo not shown) [Dex-Vi, bis(3-trimethylammonio-2-hydroxy)propyl viologen tetrachloride]
first electron formal potential (E1^0) ([1]; 15 mM in 1.0 M NaCl, 18° C.): −0.322 V vs. SHE | E1^0 ([1]; Table 1): −0.322 V vs. SHE | E2^0 ([1]; Table 1): −0.699 V vs. SHE | reduced state diffusion coefficient (D1^R) ([1]; first redox state, 3+ species): 1.9×10^−6 cm^2·s^−1 | oxidized state diffusion coefficient (D1^O) ([1]; first redox state, 4+ species): 2.3×10^−6 cm^2·s^−1 | D2^O ([1]; second redox state): 4.0×10^−6 cm^2·s^−1 | D2^R ([1]; second redox state): 3.1×10^−6 cm^2·s^−1 | second electron formal potential (E2^0) ([1]; vs. SHE, 15 mM in 1.0 M NaCl, 18° C.): −0.699 V | decay in symmetric flow cell [2]: no decay | capacity decay in RFB cycling ([3]; 0.1 M, two weeks (1,200+ cycles)): no observable decay | capacity decay in RFB cycling ([3]; 1.5 M, one month continual cycling): no discernable decay | Anolyte-limiting RFB Stability ([3]; Table 1): ~0% decay/year | RFB Viologen Molarity (1e^−) ([3]; Table 1): 1.5
